Test results published in patent US20250213700A1, “COMPOUNDS, COMPOSITIONS, AND METHODS FOR CELL-SPECIFIC PHARMACOLOGY” (Duke University, priority 2022, published 2025).

Columns and labels:
[1] = molecular target: T1, HTP in D1 cells of left dorsal striatum (Rhodococcus rhodochrous, UniProt P0A3G2, A155T/A167V/A172T/A224E/C128F/C176G/D78G/E160K/E257K/H272N/K175M/K195N/L47V/L88M/N227D/S58T/T264A/Y273L/Y87F); assay: histology of tracer dye capture in dorsal striatum; type: in vivo, mouse; details: 3 µM dye+30 µM drug, histology 24 hr later
T1 construct: SSnlg signal peptide (residues 1-49 of mouse neuroligin-1) (N); Thy1 GPI anchor signal (C); expressed in transfected cells; host or cells: mouse neurons transduced in vivo with AAV-DIO-+HTPGPI (D1-Cre dorsal striatum; PV::cre retinal ganglion cells)
T1 sequence (P0A3G2 other isoform, or with tags, fused parts or gaps with the stated changes): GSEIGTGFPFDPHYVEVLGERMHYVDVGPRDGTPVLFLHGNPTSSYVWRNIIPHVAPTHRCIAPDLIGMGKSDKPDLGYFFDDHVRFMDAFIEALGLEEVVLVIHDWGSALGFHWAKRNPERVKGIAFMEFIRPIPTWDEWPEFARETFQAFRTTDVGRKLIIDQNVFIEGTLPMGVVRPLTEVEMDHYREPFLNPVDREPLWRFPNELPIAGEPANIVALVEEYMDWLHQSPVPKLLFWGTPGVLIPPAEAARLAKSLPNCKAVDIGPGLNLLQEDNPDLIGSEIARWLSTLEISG
Method: FIG. 3A-3F show quantitative engagement of the DART.2 platform. (FIG. 3A) Mice with ^+HTP or ^ddHTP in D1 cells of left dorsal striatum. Open field (1 hr) before and after Alexa488.1^DART.2+YM90K.1^DART.2 (3 µM dye+30 µM drug, 1 μL in 10 min). Histology performed 24 hr later. Left, dTomato expression and Alexa488.1^DART.2 capture from a ^+HTP mouse. […] Right, open-field turning vs dye capture. […] Dye capture can be used as a behavior-independent inclusion criterion (shading), allowing exclusion of 4 ^+HTP mice in this dataset. (FIG. 3B) Older technology lacked tracer^DART. Here, an estimate of technical success with a non-DART dye (fluorogold) was attempted and a numerical algorithm dye-virus overlap was estimated. […] (FIG. 3C and FIG. 3D) Characterization in live mice expressing HTP in dSPNs of the left dorsal striatum. Alexa^DART.2 co-infused with YM90^KDART.2 ligand provided permanent marker of drug capture, tight correspondence between histology and behavioral potency, and 3-fold increase in behavioral potency in comparison to its predecessor. (FIG. 3E and FIG. 3F) YM90^KDART.1 in live mice for comparison with above.
Histology. […] Images were analyzed for pixel intensity using MATLAB.
These advances were combined in a mouse locomotor assay. […] Mice were perfused for histology 24 hrs later, and quantitative measurement of the integrated Alexa capture over the dorsal striatum was performed. […]

[2] = molecular target: T2, HTP on retinal ganglion cells (Rhodococcus rhodochrous, UniProt P0A3G2, A155T/A167V/A172T/A224E/C128F/C176G/D78G/E160K/E257K/H272N/K175M/K195N/L47V/L88M/N227D/S58T/T264A/Y273L/Y87F); assay: tracer dye capture on retinal ganglion cells; type: cell-based, mouse; details: 30 nM, 15 min, after washout
T2 construct: SSnlg signal peptide (residues 1-49 of mouse neuroligin-1) (N); Thy1 GPI anchor signal (C); expressed in transfected cells; host or cells: mouse neurons transduced in vivo with AAV-DIO-+HTPGPI (D1-Cre dorsal striatum; PV::cre retinal ganglion cells)
T2 sequence (P0A3G2 other isoform, or with tags, fused parts or gaps with the stated changes): as above
Method: FIG. 6A-6C show bidirectional manipulation of AMPAR and GABAAR neurotransmission. (FIG. 6A) Viral strategy (top panel). Intravitreal AAV7m8-DIO-HTPGPI-2A-dTomao achieves retinal ganglion cell (RGC) expression in PV::cre mice. Experimental overview (second panel from the top to bottom panel). Top: whole retina; synaptic current is evoked (stim) and recorded (voltage-clamp of dTomato+ RGC), with ionic and pharmaceutical conditions chosen to isolate the AMPAR or GABAAR. A 10 min baseline is followed by 15 min application of 300 nM Rx^DART.2+30 nM Alexa^647.1DART.2. […] (FIG. 6B) CMPDA.2^DART.2 (left). Electropositive spacer (PDB 3RNN). […] EPSC waveform before and after CMPDA.2^DART.2. AMPAR structural model (middle) (composite of PDB 5WEO, 3RNN, and 1FTL). Cylinder depicts cell membrane. CMPDA.2^DART.2 binds within an inter-clamshell interface (2 per receptor). YM90K.1^DART.2 binds the orthosteric glutamate binding site in the clamshell (4 per receptor). YM90K.1^DART.2 (right). […]
Next it was asked whether bidirectional modulation of the AMPAR and GABAAR could be achieved in the same cell type. A preparation was focused on in which electrophysiology is the primary readout, enabling resolution of the amplitude and millisecond time-constant of synaptic transmission. […] A whole-mount retina was later prepared and evoked synaptic currents were measured under conditions that isolate the AMPAR or GABAAR. […]

[3] = test system: +HTP somatostatin interneurons and -HTP neurons of V1 visual cortex; assay: 2P calcium imaging of V1 visual responses after contralateral ventricle infusion, SOM-Cre mice; type: in vivo, mouse; details: infused with YM90K.1DART.2 into contralateral ventricle, widefield fluorescence
Method: Top left: Mice expressing pan-neuronal GCaMP8s with SOM-specific ^+HTP. Window over V1. DART delivered via the contralateral ventricle. Bottom left: In-vivo and ex-vivo expression and dye capture. Right: Mice presented oriented visual gratings, 2P Ca^2+ imaging obtained before and 5-6 hr after infusion of 0.3 nmole Alexa647.1^DART.2+3 nmole YM90K.1^DART.2 (2 μL volume) into the contralateral ventricle.
Next, it was examined whether this strategy could deliver a pharmacologically active DART to genetically defined cells. A surgery was performed in which AAV DIO +HTPGPI was injected into the V1 visual cortex of SOM-Cre mice for cell-specific expression in somatostatin interneurons, along with a co-injected AAV-GCaMP8s virus for pan-neuronal neural activity monitoring. A cannula was implanted in the contralateral ventricle, and glass window over V1. Following surgical recovery, a mixture of YM90K.1DART.2+Alexa647.1DART.2 was infused. […] To test for pharmacological effects, 2P calcium imaging of +HTP and −HTP was performed while mice were presented with oriented gratings. A reduction in +HTP visual response was apparent 4 hours post DART infusion. This reduction persisted even after 24 hours post infusion.

[4] = biodistribution to cortex after lateral ventricle infusion (wide-field fluorescence through cranial window); type: in vivo, mouse; details: -HTP mice, high dose into lateral ventricle
Excerpt: To maintain control of the ambient drug concentration in vivo, thus far a cannula was implanted in close proximity to the desired brain target. (FIG. 5) However, optical and electrical brain interfaces often occupy this precious real estate. For example, cranial window technologies, in which a portion of the skull is replaced with a glass window, have become instrumental in studying the neocortex. Application of drugs through a glass window remains an unsolved problem, as access ports will generally close due to scarring, and temporary removal of the window can compromise the preparation. Thus, it was asked whether DART.2 could enable dosing from a distance via the cerebrospinal fluid (CSF). Delivery via the cisterna magna was first explored, given reports that dextran tracers delivered at this site achieve rapid biodistribution throughout the neocortex parenchyma. Although there was some preliminary success with this approach, it was found difficult to establish mechanically stable cannulation of the cisterna magna, owing to its position below the base of the skull and to the mobility of the neck muscles. […] Following surgical recovery, a high dose of Alexa647.1DART.2 was fused into the LV (dose, volume) and monitored wide-field fluorescence intensity through the cranial window. Fluorescence intensity peaked 2 hr later, and largely cleared by 24 hours (i2055,i2056). […]

| SMILES | dye capture, ddHTP mice [1] | dye capture on +HTP cells [2] | dye capture on ddHTP or -HTP cells [2] | time for DART capture to reach steady state [3] [h] | time by which fluorescence largely cleared [4] [h] | time to peak fluorescence intensity over cortex [4] [h] |
| --- | --- | --- | --- | --- | --- | --- |
| COc1cc(CCCCl)ccc1CCOCCNC(=O)c1ccc(CNC(=O)CCOCCOCCOCCOCCOCCOCCOCCOCCOCCOCCOCCOCCOCCOCCOCCOCCOCCOCCOCCOCCOCCOCCOCCOCCOCCOCCOCCOCCOCCOCCOCCOCCOCCOCCOCCOCCn2cc(CNC(=O)c3ccc(-c4c5ccc(=N)c(S(=O)(=O)O)c-5oc5c(S(=O)(=O)O)c(N)ccc45)c(C(=O)O)c3)nn2)cc1 [Alexa488.1^DART.2, 6-amino-9-(2-carboxy-4-(((1-(1-(4-((2-(4-(3-chloropropyl)-2-methoxyphenethoxy)ethyl)carbamoyl)phenyl)-3-oxo-6,9, 12, 15, 18, 21, 24, 27, 30, 33, 36, 39, 42, 45, 48, 51, 54, 57, 60, 63, 66, 69, 72, 75, 78, 81, 84, 87, 90, 93, 96, 99, 102, 105, 108, 111-hexatriacontaoxa-2-azatridecahectan-113-yl)-1H-1,2,3-triazol-4-yl)methyl)carbamoyl)phenyl)-3-iminio-5-sulfo-3H-xanthene-4-sulfonate] | No dye capture detected | – | – | – | – | – |
| COc1cc(CCCCl)ccc1CCOCCNC(=O)c1ccc(CNC(=O)CCOCCOCCOCCOCCOCCOCCOCCOCCOCCOCCOCCOCCOCCOCCOCCOCCOCCOCCOCCOCCOCCOCCOCCOCCOCCOCCOCCOCCOCCOCCOCCOCCOCCOCCOCCOCCn2cc(COCCOCCOCCOCCOCCOCCNC(=O)CCCCCC3(C)\C(=C/C=C/C=C/C4=[N+](CCCS(=O)(=O)O)c5ccc(S(=O)(=O)[O-])cc5C4(C)C)N(CCCS(=O)(=O)O)c4ccc(S(=O)(=O)O)cc43)nn2)cc1 (stereo not drawn) [Alexa647.1DART.2] | – | robust capture | no detectible capture | 4 to 8 | ≤ 24 | 2 |
